{"source": "patent US10689673B2", "about": "“Bioconversion process for producing nylon-7, nylon-7,7 and polyesters” (INVISTA NORTH AMERICA S.A.R.L., priority 2011, dated 2020)", "key": {"[1]": {"biological_target": "T1, Clostridium tetanomorphum methylaspartate ammonia lyase (MAL) (Clostridium tetanomorphum, UniProt Q05514)", "T1 construct": "made in house; host or cells: E. coli BL21 (DE3), pET21-a, cell-free extract", "T1 sequence (Q05514 whole entry)": "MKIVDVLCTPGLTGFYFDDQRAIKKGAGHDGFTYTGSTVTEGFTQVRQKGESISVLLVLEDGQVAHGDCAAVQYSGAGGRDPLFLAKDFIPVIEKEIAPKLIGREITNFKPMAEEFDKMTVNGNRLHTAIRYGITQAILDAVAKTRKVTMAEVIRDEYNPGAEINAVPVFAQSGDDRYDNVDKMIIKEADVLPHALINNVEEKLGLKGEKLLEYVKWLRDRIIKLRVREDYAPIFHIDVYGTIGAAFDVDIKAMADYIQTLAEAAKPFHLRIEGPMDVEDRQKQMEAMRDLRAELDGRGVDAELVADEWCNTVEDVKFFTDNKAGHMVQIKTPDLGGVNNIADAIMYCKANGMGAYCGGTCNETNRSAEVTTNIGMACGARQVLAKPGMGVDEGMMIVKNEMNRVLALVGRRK", "test": "Biotransformation of beta-methyl aspartate with I5 lyase strain cell extract", "assay_type": "biochemical", "details": "10 mM substrate, 5 or 20 g/L whole cell equivalent, 30° C., after 1 hour"}, "[2]": {"biological_target": "T2, Citrobacter amalonaticus methylaspartate ammonia lyase (MAL) (Citrobacter amalonaticus, UniProt O66145)", "T2 construct": "made in house; host or cells: E. coli BL21 (DE3), pET21-a, cell-free extract", "T2 sequence (O66145 whole entry)": "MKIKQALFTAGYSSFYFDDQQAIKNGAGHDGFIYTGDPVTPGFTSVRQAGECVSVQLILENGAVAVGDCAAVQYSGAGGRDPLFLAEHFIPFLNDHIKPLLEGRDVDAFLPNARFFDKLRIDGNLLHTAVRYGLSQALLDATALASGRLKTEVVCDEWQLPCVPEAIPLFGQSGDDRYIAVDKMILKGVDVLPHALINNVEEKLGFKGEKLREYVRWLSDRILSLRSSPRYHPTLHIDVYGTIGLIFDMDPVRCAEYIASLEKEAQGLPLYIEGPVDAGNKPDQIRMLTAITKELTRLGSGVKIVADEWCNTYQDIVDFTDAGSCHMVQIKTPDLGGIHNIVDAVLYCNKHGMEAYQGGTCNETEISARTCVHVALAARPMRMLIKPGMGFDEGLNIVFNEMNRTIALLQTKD", "test": "Biotransformation of beta-methyl aspartate with I4 lyase strain cell extract", "assay_type": "biochemical", "details": "10 mM substrate, 5 or 20 g/L whole cell equivalent, 30° C., after 1 hour"}, "[3]": {"system": "Aspergillus oryzae methylaspartate ammonia lyase (MAL)", "details": "10 mM substrate, 5 or 20 g/L whole cell equivalent, 30° C., 1, 5 and 18 hours"}, "ACOT5 (formerly PTE-1c)": {"biological_target": "T3, ACOT5 (formerly PTE-1c) (Mus musculus, UniProt Q6Q2Z6)", "T3 construct": "His tag; host or cells: E. coli", "T3 sequence (Q6Q2Z6 1-421)": "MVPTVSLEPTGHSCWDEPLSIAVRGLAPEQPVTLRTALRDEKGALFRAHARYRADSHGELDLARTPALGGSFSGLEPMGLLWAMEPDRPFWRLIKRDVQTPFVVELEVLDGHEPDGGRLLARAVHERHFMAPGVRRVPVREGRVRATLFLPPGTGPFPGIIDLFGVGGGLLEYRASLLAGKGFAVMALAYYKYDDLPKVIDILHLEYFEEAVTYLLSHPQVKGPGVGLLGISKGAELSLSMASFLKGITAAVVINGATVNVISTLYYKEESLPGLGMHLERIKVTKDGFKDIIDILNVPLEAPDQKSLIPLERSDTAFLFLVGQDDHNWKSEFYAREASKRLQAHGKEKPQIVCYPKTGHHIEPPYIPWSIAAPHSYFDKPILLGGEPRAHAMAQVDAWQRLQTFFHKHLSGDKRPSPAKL", "details": "cited from earlier work"}, "[4]": {"biological_target": "T4, ACOT4 peroxisomal acyl-CoA thioesterase 4 (Mus musculus, UniProt Q8BWN8)", "T4 construct": "His tag; host or cells: E. coli", "T4 sequence (Q8BWN8 1-421)": "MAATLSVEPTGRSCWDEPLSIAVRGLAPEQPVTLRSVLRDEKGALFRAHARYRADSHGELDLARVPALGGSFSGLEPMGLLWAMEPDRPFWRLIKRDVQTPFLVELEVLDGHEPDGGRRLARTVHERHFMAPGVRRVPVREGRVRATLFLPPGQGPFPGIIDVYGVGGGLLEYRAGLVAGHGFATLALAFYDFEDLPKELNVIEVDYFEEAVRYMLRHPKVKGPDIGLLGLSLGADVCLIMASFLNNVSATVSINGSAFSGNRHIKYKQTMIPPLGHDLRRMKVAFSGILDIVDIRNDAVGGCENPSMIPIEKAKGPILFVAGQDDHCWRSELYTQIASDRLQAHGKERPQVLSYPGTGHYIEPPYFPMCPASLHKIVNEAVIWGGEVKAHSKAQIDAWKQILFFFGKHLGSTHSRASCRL", "details": "at concentrations up to 500 μM; cited from earlier work"}, "ACOT3 (formerly PTE-1a)": {"biological_target": "T5, ACOT3 (formerly PTE-1a) (Mus musculus, UniProt Q9QYR7)", "T5 construct": "His tag; host or cells: E. coli", "T5 sequence (Q9QYR7 1-432)": "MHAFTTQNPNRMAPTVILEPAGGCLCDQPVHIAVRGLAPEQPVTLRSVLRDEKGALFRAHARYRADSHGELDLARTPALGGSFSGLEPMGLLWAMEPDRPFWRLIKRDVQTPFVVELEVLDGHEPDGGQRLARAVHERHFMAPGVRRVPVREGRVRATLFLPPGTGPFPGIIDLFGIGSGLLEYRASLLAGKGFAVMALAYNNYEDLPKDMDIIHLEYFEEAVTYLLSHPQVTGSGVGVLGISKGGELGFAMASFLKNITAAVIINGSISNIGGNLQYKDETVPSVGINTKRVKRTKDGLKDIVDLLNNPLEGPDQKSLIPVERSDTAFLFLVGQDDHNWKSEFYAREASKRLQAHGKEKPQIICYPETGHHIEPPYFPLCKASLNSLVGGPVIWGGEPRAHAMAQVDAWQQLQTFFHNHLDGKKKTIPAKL", "details": "cited from earlier work"}, "[5]": {"biological_target": "T6, Nocardia sp. carboxylic acid reductase (CAR) (Nocardia iowensis, UniProt Q6RKB1)", "T6 construct": "made in house; host or cells: E. coli BL21, cell-free extract", "T6 sequence (Q6RKB1 2-1174)": "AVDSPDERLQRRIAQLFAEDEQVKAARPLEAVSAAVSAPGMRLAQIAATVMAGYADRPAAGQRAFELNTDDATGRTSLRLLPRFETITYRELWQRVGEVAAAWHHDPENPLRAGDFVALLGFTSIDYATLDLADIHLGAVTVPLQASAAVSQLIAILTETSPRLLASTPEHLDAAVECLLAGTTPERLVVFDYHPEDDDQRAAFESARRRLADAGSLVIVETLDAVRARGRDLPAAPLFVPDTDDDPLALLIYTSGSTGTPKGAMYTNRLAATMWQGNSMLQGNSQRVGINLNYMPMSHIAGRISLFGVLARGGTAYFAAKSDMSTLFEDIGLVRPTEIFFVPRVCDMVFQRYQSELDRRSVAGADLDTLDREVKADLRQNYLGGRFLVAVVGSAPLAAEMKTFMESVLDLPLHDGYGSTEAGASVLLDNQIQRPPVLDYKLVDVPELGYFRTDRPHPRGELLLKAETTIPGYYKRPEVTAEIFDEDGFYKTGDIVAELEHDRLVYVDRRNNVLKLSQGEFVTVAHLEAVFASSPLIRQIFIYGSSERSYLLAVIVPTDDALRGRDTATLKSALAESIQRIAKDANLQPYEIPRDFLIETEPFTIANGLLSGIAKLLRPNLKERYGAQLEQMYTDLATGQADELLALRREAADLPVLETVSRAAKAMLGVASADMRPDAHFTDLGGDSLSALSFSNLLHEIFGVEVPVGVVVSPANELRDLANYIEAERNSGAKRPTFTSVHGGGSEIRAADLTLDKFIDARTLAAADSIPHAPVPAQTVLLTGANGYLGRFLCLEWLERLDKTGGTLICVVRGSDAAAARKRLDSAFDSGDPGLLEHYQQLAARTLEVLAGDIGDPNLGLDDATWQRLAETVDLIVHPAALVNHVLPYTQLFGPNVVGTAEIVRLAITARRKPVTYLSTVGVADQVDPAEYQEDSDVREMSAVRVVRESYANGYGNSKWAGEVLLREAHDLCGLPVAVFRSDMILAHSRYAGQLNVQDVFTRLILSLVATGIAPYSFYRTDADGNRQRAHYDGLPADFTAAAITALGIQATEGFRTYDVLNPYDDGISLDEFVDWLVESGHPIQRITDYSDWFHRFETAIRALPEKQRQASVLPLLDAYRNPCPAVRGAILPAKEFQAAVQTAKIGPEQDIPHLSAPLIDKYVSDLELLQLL", "test": "Carboxylic acid reductase (CAR) spectrophotometric assay of NADPH consumption", "assay_type": "biochemical", "source_text": "The conditions for the assay were taken from Applied and Environmental Microbiology 2004, 70, p 1874-1881."}, "[6]": {"biological_target": "T7, Aminoadipate aminotransferase (Q64602) (Bos taurus, UniProt Q5E9N4)", "T7 construct": "host or cells: bovine kidney", "T7 sequence (Q5E9N4 30-425, one chain of several)": "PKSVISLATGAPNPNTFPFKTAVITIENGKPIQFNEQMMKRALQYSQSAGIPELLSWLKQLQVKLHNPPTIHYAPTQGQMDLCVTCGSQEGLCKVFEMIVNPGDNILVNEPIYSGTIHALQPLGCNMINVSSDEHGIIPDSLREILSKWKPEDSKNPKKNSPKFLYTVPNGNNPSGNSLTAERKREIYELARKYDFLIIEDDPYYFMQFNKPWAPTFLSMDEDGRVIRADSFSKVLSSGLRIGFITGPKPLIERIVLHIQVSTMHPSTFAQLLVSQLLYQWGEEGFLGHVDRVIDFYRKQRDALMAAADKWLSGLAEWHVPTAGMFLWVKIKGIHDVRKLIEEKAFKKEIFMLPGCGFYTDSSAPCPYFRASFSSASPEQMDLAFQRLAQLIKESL", "details": "cited from earlier work"}, "[7]": {"system": "PauA pimeloyl-CoA ligase (EC 6.2.1.14)", "details": "substrate of pauA; pimelate = 100%; cited from earlier work"}, "[8]": {"biological_target": "T8, Haemophilus influenzae YciA thioesterase (Haemophilus influenzae, UniProt P44886)", "T8 construct": "made in house; host or cells: E. coli BL21 (DE3), cell-free extract", "T8 sequence (P44886 whole entry)": "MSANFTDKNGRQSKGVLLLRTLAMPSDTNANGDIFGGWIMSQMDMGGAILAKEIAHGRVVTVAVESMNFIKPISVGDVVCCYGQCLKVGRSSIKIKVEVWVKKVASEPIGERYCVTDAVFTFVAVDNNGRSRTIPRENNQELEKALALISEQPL", "test": "Biotransformation of pimeloyl-CoA to pimelic acid with YciA thioesterase cell free extract", "assay_type": "biochemical", "details": "1 mM substrate, ~15 g/L whole cell equivalents, pH 7.5, 20° C., after 1 hour", "description": "Biotransformations were carried out in a final volume of 2 mL. The biotransformations comprised of 1 mM substrate, 200 mM KCl and 50 mM potassium Hepes (pH 7.5). Negative controls comprised of cells harbouring the empty vector The biocatalyst was charged as a cell free extract to give a final concentration of ˜15 g/L whole cell equivalents. The reactions were carried out at ambient temperature (20° C.) in 15 mL falcon tubes with stirring. Each biotransformation was sampled after 1 h, 4 h and 24 h and analysed by HPLC (Agilent 1100) on a Phenomenex Luna C18 250×4.6 mm, 5 micron column. […] The filtrates were analysed by HPLC at 260 nm for the disappearance of pimeloyl-CoA (Rt 12.39 mins) and the formation of CoA (Rt 7.98 minutes), both which absorbs strongly at this wavelength, while pimlic acid was not detectable by UV at 260 nm. Pimelic acid formation was confirmed by LC-MS."}}, "data": [{"smiles": "C[C@H](C(=O)O)[C@@H](N)C(=O)O", "note": "(racemic) [DL-threo-beta methyl aspartate]", "values": [{"measurement": "conversion to mesaconic acid", "setting": "[1]", "value": "complete conversion"}, {"measurement": "conversion to mesaconic acid", "setting": "[2]", "value": "complete conversion"}, {"measurement": "lyase activity (mesaconic acid formation)", "setting": "[3]", "value": "No activity"}]}, {"smiles": "CC(C)(COP(=O)(O)OP(=O)(O)OC[C@H]1O[C@@H](n2cnc3c(N)ncnc32)[C@H](O)[C@@H]1OP(=O)(O)O)[C@@H](O)C(=O)NCCC(=O)NCCS", "note": "[CoASH]", "values": [{"measurement": "inhibition with free CoASH", "setting": "ACOT5 (formerly PTE-1c)", "value": "no inhibition"}, {"measurement": "inhibition of the reaction by CoASH", "setting": "[4]", "value": "not inhibited"}, {"measurement": "inhibition with free CoASH", "setting": "ACOT3 (formerly PTE-1a)", "value": "no inhibition"}]}, {"smiles": "O=C(O)CCCCCC(=O)O", "note": "[Pimelic acid]", "values": [{"measurement": "NADPH consumption (uncorrected)", "setting": "[5]; 50 mM substrate, rCAR cell free extract 4.3 g/L whole cell equivalents, pH 7.5, ~20 deg C, change in absorbance over time", "value": "−0.00096"}, {"measurement": "NADPH consumption (corrected for background)", "setting": "[5]; as uncorrected, corrected with negative control (BL21 empty vector) rate", "value": "−0.00103"}, {"measurement": "activity relative to the activity for benzoic acid", "setting": "[5]; reduction to pimelic acid semialdehyde", "value": "> 100", "unit": "%"}, {"measurement": "reduction in activity in the presence of pimelic acid", "setting": "[6]", "value": 30, "unit": "%"}, {"measurement": "relative activity", "setting": "[7]", "value": 100, "unit": "%"}]}, {"smiles": "CC(C)(COP(=O)(O)OP(=O)(O)OC[C@H]1O[C@@H](n2cnc3c(N)ncnc32)[C@H](O)[C@@H]1OP(=O)(O)O)[C@@H](O)C(=O)NCCC(=O)NCCSC(=O)CCCCCC(=O)O", "note": "[pimeloyl-CoA]", "values": [{"measurement": "hydrolysis to pimelic acid", "setting": "[8]", "value": "Complete hydrolysis"}]}]}
